From US7868204B2, “Inhibitors of histone deacetylase” (MethylGene Inc., priority 2001, dated 2011)

How the values were obtained:
HCT116 cells = test: MTT assay; format: cell-based; conditions: Homo sapiens, HCT-116, Table 5d; HCT116 cells, 72 hours
Method: HCT116 cells (2000/well) were plated into 96-well tissue culture plates one day before compound treatment. Compounds at various concentrations were added to the cells. The cells were incubated for 72 hours at 37° C. in 5% CO2 incubator. MTT (3-[4,5-dimethylthiazol-2-yl]-2,5 diphenyl tetrazolium bromide, Sigma) was added at a final concentration of 0.5 mg/ml and incubated with the cells for 4 hours before one volume of solubilization buffer (50% N,N-dimethylformamide, 20% SDS, pH 4.7) was added onto the cultured cells. […] OD values were converted to cell numbers according to a standard growth curve of the relevant cell line.

[1] = biological target: T1, cloned recombinant human HDAC-1 (Homo sapiens, UniProt Q13547); test: Human HDAC-1 enzyme inhibition, Assay 1 ([3H]-acetylated histone substrate, scintillation counting); format: biochemical; conditions: Table 5d; read-out: HDAC-1 IC50
T1 construct: made in house; host or cells: Baculovirus insect cell expression system
Method: Assay 1. HDAC inhibitors were screened against a cloned recombinant human HDAC-1 enzyme expressed and purified from a Baculovirus insect cell expression system. […] The mixture was extracted with ethyl acetate and the released [^3H]-acetic acid was quantified by scintillation counting. For inhibition studies, the enzyme was preincubated with compounds at 4° C. for 30 minutes prior to initiation of the enzymatic assay. IC50 values for HDAC enzyme inhibitors were determined by performing dose response curves with individual compounds and determining the concentration of inhibitor producing fifty percent of the maximal inhibition.

T1 sequence (Q13547 whole entry): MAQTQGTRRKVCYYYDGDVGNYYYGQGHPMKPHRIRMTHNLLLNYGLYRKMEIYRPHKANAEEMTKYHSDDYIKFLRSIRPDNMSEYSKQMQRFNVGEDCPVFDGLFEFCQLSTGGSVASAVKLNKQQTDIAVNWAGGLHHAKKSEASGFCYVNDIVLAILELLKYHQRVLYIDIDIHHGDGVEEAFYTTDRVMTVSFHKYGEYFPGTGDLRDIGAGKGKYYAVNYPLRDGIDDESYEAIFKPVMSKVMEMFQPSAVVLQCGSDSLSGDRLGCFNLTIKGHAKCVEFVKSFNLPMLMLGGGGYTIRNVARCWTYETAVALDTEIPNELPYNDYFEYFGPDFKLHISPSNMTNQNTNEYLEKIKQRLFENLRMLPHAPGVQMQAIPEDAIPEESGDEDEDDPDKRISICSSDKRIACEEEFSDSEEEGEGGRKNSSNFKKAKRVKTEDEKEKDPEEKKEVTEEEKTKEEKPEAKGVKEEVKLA

IC50 (HCT116 cells) | IC50 [1] | SMILES
6 µM | 3 µM | Nc1ccccc1NC(=O)/C=C/c1ccc(CNc2ccc3c(c2)OCO3)cc1 [Cpd 505, N-(2-Amino-phenyl)-3-[4-(benzo[1,3]dioxol-5-ylaminomethyl)-phenyl]-acrylamide]
11 µM | 15 µM | Nc1ccccc1NC(=O)/C=C/c1ccc(CNc2cccc(OC(F)(F)F)c2)cc1 [Cpd 506, N-(2-Amino-phenyl)-3-{4-[(3-trifluoromethoxy-phenylamino)-methyl]-phenyl}-acrylamide]
5 µM | 6 µM | CC(C)c1ccc(NCc2ccc(/C=C/C(=O)Nc3ccccc3N)cc2)cc1 [Cpd 510, N-(2-Amino-phenyl)-3-{4-[(4-isopropyl-phenylamino)-methyl]-phenyl}-acrylamide]
> 25 µM | 4 µM | Nc1ccccc1NC(=O)/C=C/c1ccc(CNc2ccc(-c3ccccc3)cc2)cc1 [Cpd 511, N-(2-Amino-phenyl)-3-[4-(biphenyl-4-ylaminomethyl)-phenyl]-acrylamide]
15 µM | 15 µM | Nc1ccccc1NC(=O)/C=C/c1ccc(Br)cc1 [Cpd 516, N-(2-Amino-phenyl)-3-(4-bromo-phenyl)-acrylamide]
5 µM | 6 µM | COc1cc(OC)c(OC)cc1CNc1ccc(/C=C/C(=O)Nc2ccccc2N)cc1 [Cpd 517]
3 µM | 5 µM | Nc1ccccc1NC(=O)/C=C/c1ccc(C(=O)Nc2ccccc2N)cc1 [Cpd 520, N-(2-Amino-phenyl)-4-[2-(2-amino-phenylcarbamoyl)-vinyl]-benzamide]
30 µM | 17 µM | Nc1ccccc1NC(=O)/C=C/c1ccc(NCCNc2nccs2)nc1 [Cpd 522, N-(2-Amino-phenyl)-3-{6-[2-(thiazol-2-ylamino)-ethylamino]-pyridin-3-yl}-acrylamide]
3 µM | 4 µM | CN1CCN(c2ccc(NCc3ccc(/C=C/C(=O)Nc4ccccc4N)cc3)cc2F)CC1 [Cpd 527, N-(2-Amino-phenyl)-3-(4-{[3-fluoro-4-(4-methyl-piperazin-1-yl)-phenylamino]-methyl}-phenyl)-acrylamide]
32 µM | 20 µM | Nc1ccccc1NC(=O)/C=C/c1ccc(CNc2cccc(O)c2)cc1 [Cpd 528]
17 µM | 5 µM | Nc1ccccc1NC(=O)/C=C/c1ccc(CNc2nccc(C(F)(F)F)n2)cc1 [Cpd 529]
9 µM | 8 µM | Nc1ccccc1NC(=O)/C=C/c1ccc(CNc2cccc(CO)c2)cc1 [Cpd 530, N-(2-Amino-phenyl)-3-{4-[(3-hydroxymethyl-phenylamino)-methyl]-phenyl}-acrylamide]
5 µM | 3 µM | N#Cc1cccc(NCc2ccc(C=CC(=O)Nc3ccccc3N)cc2)c1 [Cpd 532]
11 µM | 5 µM | CC(=O)NCc1cccc(NCc2ccc(/C=C/C(=O)Nc3ccccc3N)cc2)c1 [Cpd 533, 3-(4-{[3-(Acetylamino-methyl)-phenylamino]-methyl}-phenyl)-N-(2-amino-phenyl)-acrylamide]
5 µM | 3 µM | Nc1ccccc1NC(=O)/C=C/c1ccc(CNc2ccc([N+](=O)[O-])c(C(F)(F)F)c2)cc1 [Cpd 534, N-(2-Amino-phenyl)-3-{4[(4-nitro-3-trifluoromethyl-phenylamino)-methyl]-phenyl}-acrylamide]
6 µM | 4 µM | Nc1ccccc1NC(=O)/C=C/c1ccc(CNc2cc(Cl)cc(Cl)c2)cc1 [Cpd 535, N-(2-Amino-phenyl)-3-{4-[(3,5-dichloro-phenylamino)-methyl]-phenyl}-acrylamide]
9 µM | 18 µM | COc1cc(/C=C/c2ccc(/C=C/C(=O)Nc3ccccc3N)cc2)cc(OC)c1OC [Cpd 536, N-(2-Amino-phenyl)-3-{4-[2-(3,4,5-trimethoxy-phenyl)-vinyl]-phenyl}-acrylamide]
12 µM | 4 µM | Nc1ccccc1NC(=O)/C=C/c1ccc(CNc2cccc(S(N)(=O)=O)c2)cc1 [Cpd 538, N-(2-Amino-phenyl)-3-{4-[(3-sulfamoyl-phenylamino)-methyl]-phenyl}-acrylamide]
10 µM | 2 µM | Nc1ccccc1NC(=O)/C=C/c1ccc(CNc2cccc(S(=O)(=O)NCCCN3CCOCC3)c2)cc1 [Cpd 539, N-(2-Amino-phenyl)-3-(4-{[3-(3-morpholin-4-yl-propylsulfamoyl)-phenylamino]-methyl}-phenyl)-acrylamide]
10 µM | 10 µM | COc1cc(CCc2ccc(/C=C/C(=O)Nc3ccccc3N)cc2)cc(OC)c1OC [Cpd 540, N-(2-Amino-phenyl)-3-{4-[2-(3,4,5-trimethoxy-phenyl)-ethyl]-phenyl}-acrylamide]
> 25 µM | 15 µM | Nc1ccccc1NC(=O)/C=C/c1ccc(CNc2cccc(-c3nnn[nH]3)c2)cc1 [Cpd 543, N-(2-Amino-phenyl)-3-(4-{[3-(1H-tetrazol-5-yl)-phenylamino]-methyl}-phenyl)-acrylamide]
45 µM | 17 µM | Nc1ccccc1NC(=O)/C=C/c1ccc(CNc2ccc(Cc3nnn[nH]3)cc2)cc1 [Cpd 544, N-(2-Amino-phenyl)-3-(4-{[4-(1H-tetrazol-5-ylmethyl)-phenylamino]-methyl}-phenyl)-acrylamide]
12 µM | 2 µM | Nc1ccccc1NC(=O)/C=C/c1ccc(CNc2ccc(Br)cc2)cc1 [Cpd 545, N-(2-Amino-phenyl)-3-{4[(4-bromo-phenylamino)-methyl]-phenyl}-acrylamide]
10 µM | 3 µM | Nc1ccccc1NC(=O)/C=C/c1ccc(CNc2cccc(Br)c2)cc1 [Cpd 546, N-(2-Amino-phenyl)-3-{4-[(3-bromo-phenylamino)-methyl]-phenyl}-acrylamide]
8 µM | 4 µM | Nc1ccccc1NC(=O)/C=C/c1ccc(CNc2ccc(I)cc2)cc1 [Cpd 547, N-(2-Amino-phenyl)-3-{4-[(4-iodo-phenylamino)-methyl]-phenyl}-acrylamide]
9 µM | 3 µM | Nc1ccccc1NC(=O)/C=C/c1ccc(CNc2cccc(I)c2)cc1 [Cpd 548, N-(2-Amino-phenyl)-3-{4-[(3-iodo-phenylamino)-methyl]-phenyl}-acrylamide]
19 µM | 4 µM | Nc1ccccc1NC(=O)/C=C/c1ccc(CNc2cccc(OCCO)c2)cc1 [Cpd 549, N-(2-Amino-phenyl)-3-(4-{[3-(2-hydroxy-ethoxy)-phenylamino]-methyl}-phenyl)-acrylamide]
15 µM | 4 µM | Nc1ccccc1NC(=O)/C=C/c1ccc(CNc2ccc([N+](=O)[O-])cc2)cc1 [Cpd 550, N-(2-Amino-phenyl)-3-{4-[(4-nitro-phenylamino)-methyl]-phenyl}-acrylamide]
9 µM | 24 µM | Nc1ccccc1NC(=O)/C=C/c1ccc(CNc2cccc([N+](=O)[O-])c2)cc1 [Cpd 551, N-(2-Amino-phenyl)-3-{4-[(3-nitro-phenylamino)-methyl]-phenyl}-acrylamide]
22 µM | 4 µM | Nc1ccccc1NC(=O)/C=C/c1ccc(CNc2ccc(Cl)cc2)cc1 [Cpd 552, N-(2-Amino-phenyl)-3-{4-[(4-chloro-phenylamino)-methyl]-phenyl}-acrylamide]
